Reference: patent US9458463B2, “Method for treatment of diabetes by a small molecule inhibitor for GRK5” (MAX-PLANCK-GESELLSCHAFT ZUR FÖRDERUNG DER WISSENSCHAFTEN …, priority 2010, dated 2016)

Assays:
full length GRK5 = molecular target: T1, full length GRK5 (Homo sapiens, UniProt P34947); assay: GRK5 kinase activity assay, ADP Glo Kinase Assay technology (Promega); type: biochemical; conditions: group II; ADP Glo Kinase Assay (Table 9-B)
T1 construct: 6/2 fold concentrated full length GRK5 (Millipore, #14-714) in reaction buffer; purchased Millipore 14-714
How it was run: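 Casein (10 μM) phosphorylation with 100 μM ATP in 20 mM MES pH 6.0, 1 mM DTT, 10 mM MgCl2, 0.01% Tween20, 120 min at room temperature; ADP quantified by ADP-Glo luminescence.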

GRK5 = molecular target: T2, GRK5 (Homo sapiens, UniProt P34947); assay: Millipore KinaseProfiler radiometric filtration binding assay; type: biochemical; conditions: group II; Millipore KinaseProfiler (Table 10)
T2 construct: purchased Millipore (KinaseProfiler service)
Method: (§1) As alternative, IC50 values are determined by a radiometric based filtration binding assay, namely Millipore KinaseProfiler™. GRK5 is incubated with 8 mM MOPS pH7.0, 0.2 mM EDTA, 2 mg/mL casein, 10 mM MgAcetate and […] (specific activity approx. 500 cpm/pmol, concentration as required). The reaction is initiated by the addition of the MgATP mix. After incubation for 40 minutes at room temperature, the reaction is stopped by the addition of 3% phosphoric acid solution. 10 μL of the reaction is then spotted onto a P30 filtermat and washed three times for 5 minutes in 75 mM phosphoric acid and once in methanol prior to drying and scintillation counting.
as §1, with “IC50” for “As alternative, IC50”, “pH 7.0,” for “pH7.0,”

[1] = tested on: beta-TC6 insulinoma cells; assay: Insulin release by beta-TC6 cells, rat/mouse insulin ELISA, high glucose; type: cell-based; conditions: Mus musculus, Beta-TC6, 2 h, group II; 5 μM, 2 h, high glucose (4.5 g/L); % increase in regard to DMSO control (set at 0%)
Method: (§2) Release of insulin was detected using a rat/mouse insulin ELISA.
After incubation, the supernatant of the beta-TC6 insulinoma cells was diluted 1:20. The insulin release was measured with rat/mouse insulin ELISA (Merck Millipore Darmstadt, Cat. # EZRMI-13K) by following the manufacture protocol. The enzyme activity of the horseradish peroxidase of the immobilized biotinylated antibodies was monitored spectrophotometrically by the increased absorbency at 490 nm, and corrected by the absorbency at 610 nm.
as §2
The effect on the insulin release of each kinase depletion was monitored by using a rat/mouse insulin ELISA.
For the validation of the negative modulating kinases SCYL1, GRK5, and ADCK1, the target genes were depleted using four different siRNA-sequences each (FIG. 2A-D). The gene-depletion was measured via mRNA-levels after 72 hours while the insulin release was measured using a rat/mouse insulin ELISA after two hours incubation.

3T3-L1 cells = assay: Cell viability assay (CellTiter-Glo / automated cell number) in 3T3-L1; type: cell-based; conditions: Mus musculus, read-out: Inhibition of cell viability IC50
Description: (§3) Luminescent cell viability assay. For the detection of cell viability, the CellTiter-Glo® Luminescent Cell Viability Assay was used. This test is based on a luciferase reaction to measure the amount of ATP in cells. This correlates directly with the number of cells and their viability because cells lose the ability to synthesize ATP directly after e.g. loss of membrane integrity or a cytotoxic event. The protocol was adapted to 24 well plates and to the different culture conditions resulting in a standardized protocol which is described below. Cell lysis, inhibition of endogenous ATPases and detection of ATP was performed by adding the CellTiter-Glo® Reagent to the culture wells. Per well, 100 μl reagent were mixed with the same volume of proper Medium. Lysing of the cells took place by 10 min incubation at RT and moderate shaking. Three times 50 μl cell lysate was transferred into a white 96 well plate to eliminate stray light, and the bioluminescence was measured.
(§4) In a 96 well dish 10000 cells per well (100 μl) were seed and treated for 72 h. At the end of the treatment, cells were fixed with 4% paraformaldehyde in PBS for 15 minutes, permeabilized with 0.1% triton-X 100 in PBS for 15 minutes and stained with Hoechst 33342 (20 μg/ml in PBS; dilute from 20 mg/ml stock) directly to cells in 100 μl medium in PBS for 30 minutes at 37° C. Stained cells were imaged with a Cellomics ArrayScan VT I automated microscope. Images were analyzed with vHCS Scan Target Activation software v5.1.2 to identify apoptotic cells. Six fields per well of a 96 well plate we re-imaged at 10× magnification. First, cells were identified by their nuclei staining in channel 1 of Cellomics and their amount. Staining intensity was plotted and compared between NT controls and compound treated cells. Finally, data was obtained using vHCS View software v 5.1.2 and the numbers of cells present in the 96 well were identified as “Valid Object Count” whereas the percentage of infection was determined as “% selected”. IC50 values have been calculated accordingly.

HepG2 cells = assay: Cell viability assay (CellTiter-Glo / automated cell number) in HepG2; type: cell-based; conditions: Homo sapiens, read-out: Inhibition of cell viability IC50
Description: as §3, §4

beta TC6 cells = assay: Cell viability assay (CellTiter-Glo / automated cell number) in beta TC6; type: cell-based; conditions: Mus musculus, read-out: Inhibition of cell viability IC50
Description: as §3, §4

C2C12 cells = assay: Cell viability assay (CellTiter-Glo / automated cell number) in C2C12; type: cell-based; conditions: Mus musculus, read-out: Inhibition of cell viability IC50
Description: as §3, §4

T2 sequence (P34947 whole entry): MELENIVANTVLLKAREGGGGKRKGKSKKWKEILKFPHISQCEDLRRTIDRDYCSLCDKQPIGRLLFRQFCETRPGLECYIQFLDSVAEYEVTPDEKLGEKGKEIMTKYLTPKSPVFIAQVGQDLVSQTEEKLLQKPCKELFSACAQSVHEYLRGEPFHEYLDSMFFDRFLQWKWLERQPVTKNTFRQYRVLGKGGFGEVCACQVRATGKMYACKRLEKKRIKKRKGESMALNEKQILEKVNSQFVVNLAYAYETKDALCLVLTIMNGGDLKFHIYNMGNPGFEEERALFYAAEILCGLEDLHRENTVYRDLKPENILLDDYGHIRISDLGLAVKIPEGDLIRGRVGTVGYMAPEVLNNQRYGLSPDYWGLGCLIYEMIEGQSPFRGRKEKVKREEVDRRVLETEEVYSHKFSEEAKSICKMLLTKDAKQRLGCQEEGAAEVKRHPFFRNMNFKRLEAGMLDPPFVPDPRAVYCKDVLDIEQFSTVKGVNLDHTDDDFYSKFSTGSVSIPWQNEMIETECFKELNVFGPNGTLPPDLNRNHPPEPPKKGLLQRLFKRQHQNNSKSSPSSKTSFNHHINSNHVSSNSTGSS
T1 sequence (P34947 whole entry): as above

| SMILES | IC50 (full length GRK5) [nM] | IC50 (GRK5) [nM] | activation at 5 µM [1] [%] | IC50 (3T3-L1 cells) [nM] | IC50 (HepG2 cells) [nM] | IC50 (beta TC6 cells) [nM] | IC50 (C2C12 cells) [nM] |
| --- | --- | --- | --- | --- | --- | --- | --- |
| CCC(NC(=O)c1ccc2c(c1)/C(=C/c1[nH]c(C)c(C(=O)N3CCN(C)CC3)c1C)C(=O)N2)c1ccc(Cl)cc1 (stereo not shown) [II.12, (3Z)-N-[1-(4-chlorophenyl)propyl]-3-({3,5-dimethyl-4-[(4-methylpiperazin-1-yl)carbonyl]-1H-pyrrol-2-yl}methylene)-2-oxoindoline-5-carboxamide] | 100 to 1000 | 100 to 1000 | 214 | – | – | – | – |
| Cc1[nH]c(/C=C2\C(=O)Nc3ccc(C(=O)N[C@H](C)c4ccccc4)cc32)c(C)c1C(=O)N1CCC[C@H]1CN1CCCC1 [II.16, (3Z)-3-[(3,5-dimethyl-4-{[(2S)-2-(pyrrolidin-1-ylmethyl)pyrrolidin-1-yl]carbonyl}-1H-pyrrol-2-yl)methylene]-2-oxo-N-[(1R)-1-phenylethyl]indoline-5-carboxamide] | – | 100 to 1000 | – | – | – | – | – |
| Cc1[nH]c(/C=C2\C(=O)Nc3ccc(C(=O)N[C@@H]4CCc5ccccc54)cc32)c(C)c1C(=O)N1CCC[C@@H]1CN1CCCC1 [II.30, (3Z)-N-[(1R)-2,3-dihydro-1H-inden-1-yl]-3-[(3,5-dimethyl-4-{[(2R)-2-(pyrrolidin-1-ylmethyl)pyrrolidin-1-yl]carbonyl}-1H-pyrrol-2-yl)methylene]-2-oxoindoline-5-carboxamide] | 2000 to 10000 | 2000 to 10000 | – | 810 | 2840 | 1690 | > 10000 |
| CC[C@@H](NC(=O)c1ccc2c(c1)/C(=C/c1[nH]c(C)c(C(=O)N3CCC[C@H]3CN3CCCC3)c1C)C(=O)N2)c1ccccc1 [II.46, (3Z)-3-[(3,5-dimethyl-4-{[(2S)-2-(pyrrolidin-1-ylmethyl)pyrrolidin-1-yl]carbonyl}-1H-pyrrol-2-yl)methylene]-2-oxo-N-[(1R)-1-phenylpropyl]indoline-5-carboxamide] | < 100 | < 100 | – | 320 | 780 | 220 | 8860 |
| CC[C@H](NC(=O)c1ccc2c(c1)/C(=C/c1[nH]c(C)c(C(=O)N3CCC[C@H]3CN3CCCC3)c1C)C(=O)N2)c1ccccc1 [II.47, (3Z)-3-[(3,5-dimethyl-4-{[(2S)-2-(pyrrolidin-1-ylmethyl)pyrrolidin-1-yl]carbonyl}-1H-pyrrol-2-yl)methylene]-2-oxo-N-[(1S)-1-phenylpropyl]indoline-5-carboxamide] | 2000 to 10000 | 2000 to 10000 | – | 1340 | 3250 | 2210 | > 10000 |
| CC[C@@H](NC(=O)c1ccc2c(c1)/C(=C/c1[nH]c(C)c(C(=O)N3CCC[C@@H]3CN3CCCC3)c1C)C(=O)N2)c1ccccc1 [II.48, (3Z)-3-[(3,5-dimethyl-4-{[(2R)-2-(pyrrolidin-1-ylmethyl)pyrrolidin-1-yl]carbonyl}-1H-pyrrol-2-yl)methylene]-2-oxo-N-[(1R)-1-phenylpropyl]indoline-5-carboxamide] | 100 to 1000 | 100 to 1000 | – | 600 | 1430 | 1080 | > 10000 |
| CC[C@@H](NC(=O)c1ccc2c(c1)/C(=C/c1[nH]c(C)c(C(=O)N3CCC(N4CCN(C)CC4)CC3)c1C)C(=O)N2)c1ccccc1 [II.53, (3Z)-3-[(3,5-dimethyl-4-{[4-(4-methylpiperazin-1-yl)piperidin-1-yl]carbonyl}-1H-pyrrol-2-yl)methylene]-2-oxo-N-[(1R)-1-phenylpropyl]indoline-5-carboxamide] | 100 to 1000 | 100 to 1000 | – | 1140 | 1300 | 1550 | > 10000 |
| Cc1[nH]c(/C=C2\C(=O)Nc3ccc(C(=O)N[C@H](C)c4cccc(Cl)c4)cc32)c(C)c1C(=O)N1CCCCC1 [II.55, (3Z)-N-[(1R)-1-(3-chlorophenyl)ethyl]-3-{[3,5-dimethyl-4-(piperidin-1-ylcarbonyl)-1H-pyrrol-2-yl]methylene}-2-oxoindoline-5-carboxamide] | 100 to 1000 | 100 to 1000 | – | 860 | 790 | 1100 | 1410 |
| CC[C@@H](NC(=O)c1ccc2c(c1)/C(=C/c1[nH]c(C)c(C(=O)N3CCCCC3)c1C)C(=O)N2)c1ccccc1 [II.63, (3Z)-3-{[3,5-dimethyl-4-(piperidin-1-ylcarbonyl)-1H-pyrrol-2-yl]methylene)-2-oxo-N-[(1R)-1-phenylpropyl]indoline-5-carboxamide] | 100 to 1000 | 100 to 1000 | – | 940 | 1250 | 1260 | 1720 |
| COc1ccc([C@@H](C)NC(=O)c2ccc3c(c2)/C(=C/Nc2ccc(CN4CCCCC4)cc2)C(=O)N3)cc1 [II.70, (3Z)-N-[(1R)-1-(4-methoxyphenyl)ethyl]-2-oxo-3-({[4-(piperidin-1-ylmethyl)phenyl]amino}methylene)indoline-5-carboxamide] | 100 to 1000 | 100 to 1000 | – | 2160 | 1810 | 1480 | > 10000 |
| C[C@@H](c1ccccc1)N(C)C(=O)c1ccc2c(c1)/C(=C/Nc1ccc(CN3CCCCC3)cc1)C(=O)N2 [II.71, (3Z)-N-methyl-2-oxo-N-[(1S)-1-phenylethyl]-3-({[4-(piperidin-1-ylmethyl)phenyl]amino}methylene)indoline-5-carboxamide] | 2000 to 10000 | 2000 to 10000 | – | 3100 | 2530 | 2750 | 4260 |
| Cc1ccc([C@@H](C)NC(=O)c2ccc3c(c2)/C(=C/Nc2ccc(CN4CCCCC4)cc2)C(=O)N3)cc1 [II.72, (3Z)-N-[(1R)-1-(4-methylphenyl)ethyl]-2-oxo-3-({[4-(piperidin-1-ylmethyl)phenyl]amino}methylene)indoline-5-carboxamide] | 100 to 1000 | 100 to 1000 | – | 1540 | 2070 | 1270 | > 10000 |
| CC[C@@H](NC(=O)c1ccc2c(c1)/C(=C/c1[nH]c(C)c(CCC(=O)NCCN(CC)CC)c1C)C(=O)N2)c1ccccc1 [II.131, (3Z)-3-{4-[2-(2-diethylamino-ethylcarbamoyl)-ethyl]-3,5-dimethyl-1H-pyrrol-2-ylmethylene}-2-oxo-2,3-dihydro-1H-indole-5-carboxylic acid (1-phenyl-propyl)-amide] | 100 to 1000 | – | 134 | > 10000 | 1490 | 3470 | > 10000 |
